# US12240853B2, “Compounds useful in HIV therapy” (GlaxoSmithKline Intellectual Property (No.2) Limited, priority 2019, dated 2025)
# Experiments:
# [1] = tested on: HIV pseudotyped virus, M184V; assay type: cell-based; settings: U373 cells (CD4, CXCR4 or CCR5), luciferase signal after 3 days
# [2] = Example 18 rat PK studies (SC and IM); assay type: in vivo, Wistar Han rats; settings: single SC or IM injection, 20 mg parent/kg
# From the text: Example 18 referenced herein was made in accordance with Synthesis B. A total of seven naïve male Wistar Han rats, 250-275 g, were received from the supplier equipped with a surgically-implanted jugular vein catheter (JVC) to facilitate blood sample collection during the first several days of the study. Following an acclimation period, the animals were assigned to the study based on acceptable health as determined by a staff veterinarian and catheter patency. Six animals were placed into two groups of 3 rats per group. Fasting of the animals before or after dosing was not required.
# On Day 1 each animal in Group 1 received a single intrascapular subcutaneous injection of prepared test article at a target dose level of 20 mg parent/kg and at a dose volume of 0.49 mL/kg. Each animal in Group 2 received a single intramuscular injection of prepared test article into a thigh muscle at a target dose level of 20 mg parent/kg and at a dose volume of 0.49 mL/kg. The animals were manually restrained for dosing and were not sedated. […]
# Interim blood samples for PK (Groups 1A and 2A) were collected from the jugular vein catheter or by venipuncture of a jugular vein if the catheter was not patent. […] The PK plasma samples were analyzed every 1-2 weeks by the Testing Facility to determine the concentration of prodrug and parent using an LC-MS/MS Research Grade Assay (RGA-1) with sensitivity to 0.1 ng/mL. […]
structure (smiles),measurement,setting,value
"C#C[C@]1(COC(=O)CCCCCCCCC)O[C@@H](n2cnc3c(N)nc(F)nc32)C[C@@H]1OC(=O)CCCCCCCCC [Example 18, (2R,3S,5R)-5-(6-amino-2-fluoro-9H-purin-9-yl)-2-((decanoyloxy)methyl)-2-ethynyltetrahydrofuran-3-yl Decanoate]",IC50,[1],73 nM
same,Clinical observations and dose site reactions,[2],All animals appeared normal at the time of each observation and no dose site reactions were observed
